Reference: patent US5475014A, “Oxazolidone derivative” (Eisai Co., Ltd., priority 1991, dated 1995)
pIC50: −log10 of the molar value.

What was measured:
MAO-A = molecular target: T1, MAO-A (Rattus norvegicus, UniProt P21396); test: MAO-A inhibition activity with rat forebrain (14C-5-HT substrate); format: biochemical, rat (male Wistar); conditions: 5-HT 200 μM, read-out: Inhibiting activity MAO-A, IC50
T1 construct: suspension of 1 part by volume of the forebrains of male Wistar rats; from tissue; host or cells: forebrain of male Wistar rats, suspension in potassium phosphate buffer
T1 sequence (P21396 1-526): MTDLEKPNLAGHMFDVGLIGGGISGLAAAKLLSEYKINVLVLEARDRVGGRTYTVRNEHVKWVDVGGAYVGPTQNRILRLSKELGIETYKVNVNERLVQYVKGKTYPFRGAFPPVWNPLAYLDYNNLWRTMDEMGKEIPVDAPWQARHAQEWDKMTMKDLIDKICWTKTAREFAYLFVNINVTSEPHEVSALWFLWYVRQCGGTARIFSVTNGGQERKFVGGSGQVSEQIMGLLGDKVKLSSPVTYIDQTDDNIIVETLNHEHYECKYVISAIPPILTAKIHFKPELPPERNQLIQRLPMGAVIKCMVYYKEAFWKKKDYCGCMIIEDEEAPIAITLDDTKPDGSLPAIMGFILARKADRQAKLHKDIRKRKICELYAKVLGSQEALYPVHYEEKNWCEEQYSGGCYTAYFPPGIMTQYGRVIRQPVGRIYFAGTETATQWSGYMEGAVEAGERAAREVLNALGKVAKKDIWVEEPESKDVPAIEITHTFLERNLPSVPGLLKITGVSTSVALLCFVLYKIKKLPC
Procedure: Determination of MAO inhibition activity with the use of rat forebrain:
The MAO inhibition activity was determined by a method of Prada et al. (J. Pharmacol. Exp. Ther., 248, 400-414 (1989)).
The enzyme reaction was conducted in 300 μl of a solution having the following composition:
^14 C-labelled enzyme substrate
The enzyme source used was a suspension of 1 part by volume of the forebrains of male Wistar rats in 5 parts by volume of a 0.1M potassium phosphate buffer (pH 7.4). The enzyme source was mixed with the test compound and the mixture was prewarmed at 37° C. for 10 min. Then the enzyme substrate was added thereto to initiate the enzyme reaction. After 10 min, 200 μl of 2N hydrochloric acid was added to terminate the reaction.
As the substrates for MAO-A and MAO-B, 5-HT (serotonin) and PEA (β-phenethylamine) each labelled with ^14 C were used, respectively. The specific radioactivities of 5-HT and PEA were regulated to 11.1 MBq/mmol and 29.6 MBq/mmol, respectively, and the concentrations of them were 200 μM and 20 μM, respectively, in the reaction.
The test compound was dissolved in distilled water so that an intended concentration could be obtained in the enzyme reaction. When the test compound was insoluble in water, it was dissolved in dimethyl sulfoxide to obtain a 10% solution.
Diethyl ether and n-heptane were used as […], respectively. After the termination of the enzyme reaction, 3 ml of the solvent was added to the reaction mixture and shaken for 10 min. After centrifugation at 3,000 rpm for about 10 min, the lower aqueous layer was frozen in dry ice/acetone. The upper organic layer was recovered by decantation and the radioactivity thereof was determined with a liquid scintillation counter.
The inhibiting activities of the test compounds against MAO A and MAO B are given at the concentrations of 10^-7 M and 10^-6 M or by IC50 values.

MAO-B = molecular target: T2, MAO-B (Rattus norvegicus, UniProt P19643); test: MAO-B inhibition activity with rat forebrain (14C-PEA substrate); format: biochemical, rat (male Wistar); conditions: 10^-5 M, read-out: Inhibiting activity MAO-B (at 10^-5 M)
T2 construct: suspension of 1 part by volume of the forebrains of male Wistar rats; from tissue; host or cells: forebrain of male Wistar rats, suspension in potassium phosphate buffer
T2 sequence (P19643 1-520): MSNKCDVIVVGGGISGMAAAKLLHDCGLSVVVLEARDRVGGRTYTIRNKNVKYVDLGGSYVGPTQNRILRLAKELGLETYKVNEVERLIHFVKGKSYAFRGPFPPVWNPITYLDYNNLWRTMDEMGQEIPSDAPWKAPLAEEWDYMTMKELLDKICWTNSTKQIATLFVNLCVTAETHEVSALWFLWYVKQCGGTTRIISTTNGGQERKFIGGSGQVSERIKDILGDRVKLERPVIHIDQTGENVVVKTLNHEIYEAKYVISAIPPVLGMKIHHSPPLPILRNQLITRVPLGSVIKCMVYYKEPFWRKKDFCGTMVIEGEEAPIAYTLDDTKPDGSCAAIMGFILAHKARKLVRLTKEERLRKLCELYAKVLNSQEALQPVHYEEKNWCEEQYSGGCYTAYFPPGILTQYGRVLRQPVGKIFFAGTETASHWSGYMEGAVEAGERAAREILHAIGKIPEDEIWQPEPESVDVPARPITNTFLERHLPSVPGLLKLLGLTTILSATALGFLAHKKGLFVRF

pIC50 (MAO-A): 7.35
inhibition at 10 µM (MAO-B): 35%
SMILES: COCC1CN(c2ccc3nc(C(C)(O)CCC#N)sc3c2)C(=O)O1 (centres unmarked) [Example 37]
